This passage reports IC50 results from US7470702B2, “Benzimidazoles” (Merck Patent GmbH, priority 2003, dated 2008).

The IC50 is the concentration at which inhibition is half-maximal. Lower therefore signals inhibition by little substance.

Sequence of TIE-2 (Q02763 23-1124, species assumed): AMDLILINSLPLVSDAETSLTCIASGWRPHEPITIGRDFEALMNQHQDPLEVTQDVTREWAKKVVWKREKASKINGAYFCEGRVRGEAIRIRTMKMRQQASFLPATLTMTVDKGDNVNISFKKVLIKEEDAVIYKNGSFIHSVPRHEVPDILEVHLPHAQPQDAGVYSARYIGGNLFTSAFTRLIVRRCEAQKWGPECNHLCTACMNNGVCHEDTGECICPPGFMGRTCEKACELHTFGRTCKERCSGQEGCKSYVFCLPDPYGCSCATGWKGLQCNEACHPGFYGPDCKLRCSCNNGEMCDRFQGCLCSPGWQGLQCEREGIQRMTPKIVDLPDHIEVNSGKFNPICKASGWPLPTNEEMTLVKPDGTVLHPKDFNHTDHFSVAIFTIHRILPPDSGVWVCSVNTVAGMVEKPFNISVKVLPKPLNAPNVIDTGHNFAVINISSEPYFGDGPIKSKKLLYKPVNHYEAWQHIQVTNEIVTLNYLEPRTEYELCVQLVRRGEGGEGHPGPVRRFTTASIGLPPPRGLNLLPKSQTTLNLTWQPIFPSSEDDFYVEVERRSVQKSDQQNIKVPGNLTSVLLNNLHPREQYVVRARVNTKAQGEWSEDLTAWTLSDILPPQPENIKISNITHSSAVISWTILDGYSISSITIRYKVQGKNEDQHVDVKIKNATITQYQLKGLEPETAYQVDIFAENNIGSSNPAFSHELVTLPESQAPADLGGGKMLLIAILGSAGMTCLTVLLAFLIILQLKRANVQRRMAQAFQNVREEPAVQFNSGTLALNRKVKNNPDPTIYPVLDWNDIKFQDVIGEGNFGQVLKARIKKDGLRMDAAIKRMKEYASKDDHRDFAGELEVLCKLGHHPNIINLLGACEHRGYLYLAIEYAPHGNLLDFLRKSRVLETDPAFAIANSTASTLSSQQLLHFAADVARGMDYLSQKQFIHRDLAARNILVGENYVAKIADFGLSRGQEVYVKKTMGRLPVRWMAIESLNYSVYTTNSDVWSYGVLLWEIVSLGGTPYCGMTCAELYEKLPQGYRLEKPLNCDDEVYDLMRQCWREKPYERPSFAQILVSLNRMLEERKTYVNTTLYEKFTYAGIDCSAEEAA

In this assay the target is TIE-2 (Homo sapiens, UniProt Q02763). Briefly: Inhibition of TIE-2 (flashplate kinase assay, poly(Glu, Tyr) phosphorylation, 33P-ATP). It is filed as biochemical. The method, then:
The TIE-2 tests can be carried out, for example, analogously to the methods indicated in WO 02/44156.
The assay determines the inhibiting activity of the substances to be tested in the phosphorylation of the substrate poly(Glu, Tyr) by Tie-2 kinase in the presence of radioactive ^33P-ATP. The phosphorylated substrate binds to the surface of a “flashplate” microtitre plate during the incubation time. After removal of the reaction mixture, the microtitre plate is washed a number of times and the radioactivity on its surface is subsequently measured. An inhibiting effect of the substances to be measured results in lower radioactivity compared with an undisturbed enzymatic reaction.
Turning to `Cc1ccc2nc(Nc3ccc(Oc4ccncc4)cc3)[nH]c2c1` [(3), (6-Methyl-1H-benzimidazol-2-yl)[4-(pyridin-4-yloxy)phenyl]amine], the IC50 is 4000 nM.
The compound `FC(F)(F)c1cc(Br)c2nc(Nc3ccc(Oc4ccncc4)cc3)[nH]c2c1` [(5), (4-Bromo-6-trifluoromethyl-1H-benzimidazol-2-yl)[4-(pyridin-4-yloxy)phenyl]amine] yielded an IC50 of 500 nM.
With `FC(F)(F)c1cc(Cl)c2nc(Nc3ccc(Oc4ccncc4)cc3)[nH]c2c1` [(14), (4-Chloro-6-trifluoromethyl-1H-benzimidazol-2-yl)[4-(pyridin-4-yloxy)phenyl]amine] the figure was 900 nM.
